Experimental data published in patent US12110289B2, “Heterocyclic compounds, preparation methods and uses thereof” (InventisBio Co., Ltd., priority 2020, dated 2024).
Read-outs that look alike come from different tables or passages of the source.

Tested on: Lung cancer cell line NCI-H358 containing KRas G12C mutation
Assay: Assay for cell proliferation (Cell-titer Glo, 5 days)
Type: cell-based, human
Details: NCI-H358, 5 days, Cell-titer Glo, read-out: IC50 (nM), Inhibition of NCI-H358 Cell Proliferation
Procedure: One hundred fifty microliter (150 μL) of media containing 2000 cells per well were seeded into each well of a 96-well culture plate and left to attach overnight in a 37° C. incubator with 5% CO2. Diluted compounds of 0.75 μL for each well were added by liquid handler at a final concentration of 0.5% DMSO. Cells were treated for 5 days in the incubator. Cell-titer Glo (CTG) kit (Promega) was used to assess cell proliferation. Of note, 120 μL of CTG reagent was added to each well and incubated at RT for 10 minutes.

| IC50 (Homo sapiens, NCI-H358, 120 h) | IC50 | SMILES |
| --- | --- | --- |
| 4 nM |  | C=CC(=O)N1C[C@H](C)N(c2nc(=O)n(-c3c(C(C)C)ncnc3C(C)C)c3nc(-c4ccccc4F)c(Cl)cc23)C[C@H]1C [4-((2S,5R)-4-acryloyl-2,5-dimethylpiperazin-1-yl)-7-(2-fluorophenyl)-6-chloro-1-(4,6-diisopropylpyrimidin-5-yl)pyrido[2,3-d]pyrimidin-2(1H)-one] |
| 130 nM |  | C=CC(=O)N1CCN(c2nc(=O)n(-c3c(C4CC4)ncnc3C3CC3)c3nc(-c4ncccc4F)c(Cl)cc23)[C@@H](C)C1 [Compound 4] |
| 172 nM |  | C=CC(=O)N1CCN(c2nc(=O)n(-c3c(C4CC4)ncnc3C3CC3)c3nc(-c4ccccc4F)c(Cl)cc23)C[C@@H]1CC#N [Compound 5] |
| 30.6 nM |  | C=CC(=O)N1CCN(c2nc(=O)n(-c3c(C(C)C)nc(N4CCC4)nc3C(C)C)c3nc(-c4ccccc4F)c(Cl)cc23)[C@@H](C)C1 [Compound 7] |
| 9.2 nM |  | C=CC(=O)N1CCN(c2nc(=O)n(-c3c(C(C)C)nc(NC)nc3C(C)C)c3nc(-c4ccccc4F)c(Cl)cc23)[C@@H](C)C1 [Compound 11] |
| 107 nM |  | C=CC(=O)N1CCN(c2nc(=O)n(-c3c(C(C)C)nc(N(C)C)nc3C(C)C)c3nc(-c4ccccc4F)c(Cl)cc23)[C@@H](C)C1 [Compound 12] |
| 8 nM |  | C=CC(=O)N1CCN(c2nc(=O)n(-c3c(C(C)C)nc(OCC(C)(C)O)nc3C(C)C)c3nc(-c4ccccc4F)c(Cl)cc23)[C@@H](C)C1 [Compound 16] |
| 69.9 nM |  | C=CC(=O)N1CCN(c2nc(=O)n(-c3c(C4CC4)nc(C)nc3C3CC3)c3nc(-c4ccccc4F)c(F)cc23)[C@@H](C)C1 [Compound 27] |
| 8.5 nM |  | C=CC(=O)N1CCN(c2nc(=O)n(-c3c(C(C)C)nc(OCCOC)nc3C(C)C)c3nc(-c4ccccc4F)c(Cl)cc23)[C@@H](C)C1 [Compound 32] |
| 67.5 nM |  | C=CC(=O)N1CCN(c2nc(=O)n(-c3c(C4CC4)nc(NCCN(C)C)nc3C3CC3)c3nc(-c4ccccc4F)c(F)cc23)[C@@H](C)C1 [Compound 33] |
| 58.3 nM |  | C=CC(=O)N1CCN(c2nc(=O)n(-c3c(C4CC4)nc(N4CC(N(C)C)C4)nc3C3CC3)c3nc(-c4ccccc4F)c(F)cc23)[C@@H](C)C1 [Compound 34] |
| 58.2 nM |  | C=CC(=O)N1CCN(c2nc(=O)n(-c3c(C4CC4)nc(NC(C)=O)nc3C3CC3)c3nc(-c4ccccc4F)c(F)cc23)[C@@H](C)C1 [Compound 35] |
| > 3000 nM |  | C=CC(=O)N1[C@H](C)CN(c2nc(=O)n(-c3c(C4CC4)ncnc3C3CC3)c3nc(-c4cccc5[nH]nc(N)c45)c(F)cc23)C[C@@H]1C [Compound 38] |
| 38.2 nM |  | C=CC(=O)N1CCN(c2nc(=O)n(-c3c(C4CC4)ncnc3C3CC3)c3nc(-c4ccccc4F)c(F)cc23)[C@@H](C)C1 [Compound 39] |
| 15.5 nM |  | C=CC(=O)N1C[C@H](C)N(c2nc(=O)n(-c3c(C4CC4)ncnc3C3CC3)c3nc(-c4c(O)cccc4F)c(F)cc23)C[C@H]1C [Compound 43] |
| 81.5 nM |  | C=CC(=O)N1[C@H](C)CN(c2nc(=O)n(-c3c(C4CC4)ncnc3C3CC3)c3nc(-c4c(O)cccc4F)c(F)cc23)C[C@@H]1C [Compound 46] |
| 25.8 nM |  | C=CC(=O)N1CCN(c2nc(=O)n(-c3c(C(C)C)nc(C)nc3C(C)C)c3nc(-c4ccccc4F)c(F)cc23)[C@@H](C)C1 [Compound 48] |
| 12.5 nM |  | C=CC(=O)N1C[C@H](C)N(c2nc(=O)n(-c3c(C4CC4)nc(C)nc3C3CC3)c3nc(-c4c(N)cccc4F)c(F)cc23)C[C@H]1C [Compound 51] |
| 74.3 nM |  | C=CC(=O)N1[C@H](C)CN(c2nc(=O)n(-c3c(C4CC4)nc(C)nc3C3CC3)c3nc(-c4c(O)cccc4F)c(F)cc23)C[C@@H]1C [Compound 55] |
| 15.9 nM |  | C=CC(=O)N1CCN(c2nc(=O)n(-c3c(C4CC4)nc(OC)nc3C3CC3)c3nc(-c4c(O)cccc4F)c(F)cc23)[C@@H](C)C1 [Compound 62] |
| 17.6 nM |  | C=CC(=O)N1CCN(c2nc(=O)n(-c3c(C(C)C)nc4c(ncn4C)c3C)c3nc(-c4ccccc4F)c(Cl)cc23)[C@@H](C)C1 [Compound 65] |
| 19.9 nM |  | C=CC(=O)N1CCN(c2nc(=O)n(-c3c(C(C)C)cc4scnc4c3C)c3nc(-c4ccccc4F)c(Cl)cc23)[C@@H](C)C1 [Compound 66] |
| 46.5 nM |  | C=CC(=O)N1CCN(c2nc(=O)n(-c3c(C(C)C)cc4c(ncn4C)c3C)c3nc(-c4ccccc4F)c(Cl)cc23)[C@@H](C)C1 [Compound 67] |
| 344 nM |  | C=CC(=O)N1CCN(c2nc(=O)n(-c3c(C)cc4scnc4c3C(C)C)c3nc(-c4ccccc4F)c(Cl)cc23)[C@@H](C)C1 [Compound 68] |
| 15.1 nM |  | C=CC(=O)N1CCN(c2nc(=O)n(-c3cc4ncn(C)c4nc3C(C)C)c3nc(-c4ccccc4F)c(Cl)cc23)[C@@H](C)C1 [Compound 70] |

Further lines, the compound ahead of its results:

| SMILES | IC50 (Homo sapiens, NCI-H358, 120 h) | IC50 |
| --- | --- | --- |
| C=CC(=O)N1C[C@H](C)N(c2nc(=O)n(-c3c(C(C)C)ncnc3C(C)C)c3nc(-c4ccccc4F)c(F)cc23)C[C@H]1C [4-((2S,5R)-4-acryloyl-2,5-dimethylpiperazin-1-yl)-7-(2-fluorophenyl)-1-(4,6-diisopropylpyrimidin-5-yl)-6-fluoropyrido[2,3-d]pyrimidin-2(1H)-one] | 19 nM |  |
| C=CC(=O)N1CCN(c2nc(=O)n(-c3c(C(C)C)ncnc3C(C)C)c3nc(-c4ccccc4F)c(Cl)cc23)C[C@@H]1CC#N [Compound 2] | 23.9 nM |  |
| C=CC(=O)N1CCN(c2nc(=O)n(-c3c(C4CC4)ncnc3C3CC3)c3nc(-c4cccc5[nH]nc(N)c45)c(Cl)cc23)[C@@H](C)C1 [Compound 3] | 661 nM |  |
| C=CC(=O)N1CCN(c2nc(=O)n(-c3c(C(C)C)nc(OC4CCN(C)C4)nc3C(C)C)c3nc(-c4ccccc4F)c(Cl)cc23)[C@@H](C)C1 (stereo partly shown) [Compound 17] | 14.4 nM |  |
| C=CC(=O)N1CCN(c2nc(=O)n(-c3c(C(C)C)nc(OC4CN(C)C4)nc3C(C)C)c3nc(-c4ccccc4F)c(Cl)cc23)[C@@H](C)C1 [Compound 18] | 16 nM |  |
| C=CC(=O)N1CCN(c2nc(=O)n(-c3c(C(C)C)nc(OCC(C)O)nc3C(C)C)c3nc(-c4ccccc4F)c(Cl)cc23)[C@@H](C)C1 (stereo partly shown) [Compound 19] | 5 nM |  |
| C=CC(=O)N1CCN(c2nc(=O)n(-c3c(C4CC4)nc(C#N)nc3C3CC3)c3nc(-c4c(O)cccc4F)c(F)cc23)[C@@H](C)C1 [Compound 25] | 52.5 nM |  |
| C=CC(=O)N1CCN(c2nc(=O)n(-c3c(C4CC4)nc(C#N)nc3C3CC3)c3nc(-c4ccccc4F)c(F)cc23)[C@@H](C)C1 [Compound 26] | 168 nM |  |
| C=CC(=O)N1CCN(c2nc(=O)n(-c3c(C4CC4)nc(N)nc3C3CC3)c3nc(-c4ccccc4F)c(F)cc23)[C@@H](C)C1 [Compound 30] | 52.7 nM |  |
| C=CC(=O)N1[C@H](C)CN(c2nc(=O)n(-c3c(C(C)C)nc(OCCN(C)C)nc3C(C)C)c3nc(-c4ccccc4F)c(Cl)cc23)C[C@@H]1C [Compound 31] | 28.2 nM |  |
| C=CC(=O)N1CCN(c2nc(=O)n(-c3c(C4CC4)ncnc3C3CC3)c3nc(-c4cccc5[nH]nc(N)c45)c(F)cc23)[C@@H](C)C1 [Compound 36] | > 3000 nM |  |
| C=CC(=O)N1C[C@H](C)N(c2nc(=O)n(-c3c(C4CC4)ncnc3C3CC3)c3nc(-c4cccc5[nH]nc(N)c45)c(F)cc23)C[C@H]1C [Compound 37] | > 3000 nM |  |
| C=CC(=O)N1C[C@H](C)N(c2nc(=O)n(-c3c(C4CC4)ncnc3C3CC3)c3nc(-c4ccccc4F)c(F)cc23)C[C@H]1C [Compound 42] | 39.5 nM | 38.5 nM |
| C=CC(=O)N1[C@H](C)CN(c2nc(=O)n(-c3c(C4CC4)ncnc3C3CC3)c3nc(-c4ccccc4F)c(F)cc23)C[C@@H]1C [Compound 45] | 299 nM |  |
| C=CC(=O)N1[C@H](C)CN(c2nc(=O)n(-c3c(C4CC4)ncnc3C3CC3)c3nc(-c4c(N)cccc4F)c(F)cc23)C[C@@H]1C [Compound 47] | 23.8 nM |  |
| C=CC(=O)N1C[C@H](C)N(c2nc(=O)n(-c3c(C(C)C)nc(C)nc3C(C)C)c3nc(-c4ccccc4F)c(F)cc23)C[C@H]1C [Compound 49] | 25 nM |  |
| C=CC(=O)N1C[C@H](C)N(c2nc(=O)n(-c3c(C4CC4)nc(C)nc3C3CC3)c3nc(-c4ccccc4F)c(F)cc23)C[C@H]1C [Compound 50] | 107 nM |  |
| C=CC(=O)N1[C@H](C)CN(c2nc(=O)n(-c3c(C4CC4)nc(C)nc3C3CC3)c3nc(-c4ccccc4F)c(F)cc23)C[C@@H]1C [Compound 53] | 617 nM |  |
| C=CC(=O)N1[C@H](C)CN(c2nc(=O)n(-c3c(C4CC4)nc(C)nc3C3CC3)c3nc(-c4c(N)cccc4F)c(F)cc23)C[C@@H]1C [Compound 54] | 34.6 nM |  |
| C=CC(=O)N1CCN(c2nc(=O)n(-c3c(C(C)C)nc(N(C)S(C)(=O)=O)nc3C(C)C)c3nc(-c4ccccc4F)c(F)cc23)[C@@H](C)C1 [Compound 56] | 27 nM |  |
| C=CC(=O)N1CCN(c2nc(=O)n(-c3c(C)ccnc3C(C)C)c3nc(-c4cccc5[nH]nc(N)c45)c(F)cc23)[C@@H](C)C1 [Compound 59] | > 3000 nM |  |
| C=CC(=O)N1CCN(c2nc(=O)n(-c3c(C)cc(S(C)(=O)=O)nc3C(C)C)c3nc(-c4c(O)cccc4F)c(F)cc23)[C@@H](C)C1 [Compound 60] | 81.7 nM |  |
| C=CC(=O)N1CCN(c2nc(=O)n(-c3c(C4CC4)nc(OC)nc3C3CC3)c3nc(-c4ccccc4F)c(F)cc23)[C@@H](C)C1 [Compound 61] | 71.2 nM |  |
| C=CC(=O)N1CCN(c2nc(=O)n(-c3c(C)cc4c(ncn4C)c3C(C)C)c3nc(-c4ccccc4F)c(Cl)cc23)[C@@H](C)C1 [Compound 69] |  | 7.8 nM |
| C=CC(=O)N1CCN(c2nc(=O)n(-c3ccc4scnc4c3C(C)C)c3nc(-c4ccccc4F)c(Cl)cc23)[C@@H](C)C1 [Compound 71] | 20.1 nM |  |
| C=CC(=O)N1CCN(c2nc(=O)n(-c3c(C(C)C)nc4c(ncn4C)c3C)c3nc(-c4ccccc4F)c(F)cc23)[C@@H](C)C1 [Compound 73] | 66 nM |  |
